Data on 1 molecule can be found in ChEMBL document CHEMBL1137781, “Synthesis and preclinical evaluation of novel PET probes for P-glycoprotein function and expression” (J Med Chem, 2009).

The test system of data set [1] is NCI/ADR-RES. The data set can be described thus: Inhibition of Pgp in human MCF7/ADR cells assessed as increase in doxorubicin accumulation at 20 uM relative to untreated control. It is filed as cell-based.
The test system of data set [2] is NCI/ADR-RES. The data set is described as follows: Inhibition of Pgp in human MCF7/ADR cells assessed as potentiation of doxorubicin-induced cytotoxicity at 20 uM relative to untreated control. It is filed as cell-based.
For the next data set, the system named is Caco-2. The data set is described as follows: Ratio of permeability from basolateral to apical side over apical to basolateral side in human Caco-2 cells. It is filed as ADME, cell-based. Background: Passage across Caco-2 layers is used to estimate intestinal permeability.

In the case of `COc1cc2c(cc1OC)CN(CC/C=C1\CCCc3c(OC)cccc31)CC2`, the values for the fold change (FC) in the data set with NCI/ADR-RES [1] and in the data set with NCI/ADR-RES [2] were 5.7 and 95, respectively. Besides, in the data set with Caco-2, the Ratio is 1.6.
